In US11351138B2, “Composition for use in the treatment of epilepsy” (VITAFLO INTERNATIONAL LTD, priority 2017, dated 2022):
“Also recorded” adds a separate entry of the source.

What was measured:
GluA2/3 AMPA receptors [1] = biological target: T1, GluA2/3 AMPA receptors (Homo sapiens, UniProt P42262+P42263); assay: AMPA receptor (GluA2/3) currents in Xenopus oocytes, two-electrode voltage clamp; format: cell-based; conditions: GluA2/3 in oocytes, 100 uM glutamate, total medium chain fatty acid content 1 mM
T1 construct: expressed in transfected cells; host or cells: Xenopus laevis oocytes injected with in vitro transcribed cRNA (GluA2 and GluA3, nominal 1:1)
T1 sequence (P42262 25-883 isoform P42262-2 limits assumed): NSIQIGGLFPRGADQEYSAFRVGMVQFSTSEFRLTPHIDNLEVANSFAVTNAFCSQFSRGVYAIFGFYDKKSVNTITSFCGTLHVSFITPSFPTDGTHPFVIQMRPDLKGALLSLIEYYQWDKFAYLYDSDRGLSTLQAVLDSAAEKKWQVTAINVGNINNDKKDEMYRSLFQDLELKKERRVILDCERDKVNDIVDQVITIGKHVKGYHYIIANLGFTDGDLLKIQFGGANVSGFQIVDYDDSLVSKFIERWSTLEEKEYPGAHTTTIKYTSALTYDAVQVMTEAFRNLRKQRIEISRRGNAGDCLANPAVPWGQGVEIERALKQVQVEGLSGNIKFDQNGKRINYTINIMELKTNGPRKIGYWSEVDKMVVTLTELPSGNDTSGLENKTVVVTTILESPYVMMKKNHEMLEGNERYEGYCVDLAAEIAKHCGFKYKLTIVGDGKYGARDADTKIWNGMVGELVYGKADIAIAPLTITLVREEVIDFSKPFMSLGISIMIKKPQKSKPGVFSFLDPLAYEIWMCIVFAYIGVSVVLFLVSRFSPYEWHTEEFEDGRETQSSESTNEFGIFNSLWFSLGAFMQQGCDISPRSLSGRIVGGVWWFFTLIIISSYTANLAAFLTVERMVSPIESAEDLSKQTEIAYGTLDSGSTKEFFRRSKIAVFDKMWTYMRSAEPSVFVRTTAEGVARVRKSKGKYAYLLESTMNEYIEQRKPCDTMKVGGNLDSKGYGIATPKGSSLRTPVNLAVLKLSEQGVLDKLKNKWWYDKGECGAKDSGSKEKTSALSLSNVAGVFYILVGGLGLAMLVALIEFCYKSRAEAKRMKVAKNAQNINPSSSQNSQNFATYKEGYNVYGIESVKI
T1 sequence (P42263 29-894 isoform P42263-2 limits assumed): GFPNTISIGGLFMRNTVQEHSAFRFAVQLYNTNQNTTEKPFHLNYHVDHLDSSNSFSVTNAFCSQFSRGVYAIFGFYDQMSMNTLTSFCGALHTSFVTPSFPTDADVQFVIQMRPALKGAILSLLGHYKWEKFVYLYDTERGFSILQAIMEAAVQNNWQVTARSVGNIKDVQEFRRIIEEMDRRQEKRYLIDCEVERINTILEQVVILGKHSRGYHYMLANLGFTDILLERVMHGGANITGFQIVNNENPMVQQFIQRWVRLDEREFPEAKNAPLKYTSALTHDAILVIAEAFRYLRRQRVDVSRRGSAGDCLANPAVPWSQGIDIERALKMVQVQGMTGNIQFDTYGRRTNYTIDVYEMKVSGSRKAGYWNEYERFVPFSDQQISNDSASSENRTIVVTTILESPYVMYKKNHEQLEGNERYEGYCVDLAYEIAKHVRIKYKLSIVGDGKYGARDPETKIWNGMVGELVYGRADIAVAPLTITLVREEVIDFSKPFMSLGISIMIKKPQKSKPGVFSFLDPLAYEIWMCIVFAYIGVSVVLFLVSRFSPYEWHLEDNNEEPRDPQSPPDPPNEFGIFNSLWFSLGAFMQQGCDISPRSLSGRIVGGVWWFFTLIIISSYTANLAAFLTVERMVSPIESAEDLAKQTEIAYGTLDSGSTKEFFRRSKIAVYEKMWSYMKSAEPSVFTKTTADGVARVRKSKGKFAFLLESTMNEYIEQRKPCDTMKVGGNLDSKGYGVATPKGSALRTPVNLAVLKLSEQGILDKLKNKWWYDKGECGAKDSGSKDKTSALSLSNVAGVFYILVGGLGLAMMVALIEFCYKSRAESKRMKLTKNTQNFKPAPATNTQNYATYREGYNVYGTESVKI
Experimental: The AMPA receptor (flip isoform) cDNAs inserted in a SP6 polymerase expression vector (pSP6T) were a gift from Prof Ralf Schoepfer (NPP, UCL). RNA was transcribed in vitro from Miu I linearised transcripts using the SP6 Promega RiboMax RNA synthesis kit (Madison, Wis.) according to manufacturers protocols except for the addition of 0.75 mM capping nucleotide m7G(5′)ppp(5′)G (Promega, Madison, Wis.) and 1.6 mM GTP. cRNA concentrations and integrity were estimated by the intensity of fluorescence bands in RNA denaturating gels. AMPA receptor cRNAs were mixed in a nominal 1:1 ratio and approximately 5 ng was injected per oocyte.
Xenopus laevis oocytes were purchased from the European Xenopus Resource Centre, University of Portsmouth. Stage V to VI oocytes were mechanically dissected and then subjected to gentle shaking for approximately 30-50 min at room temperature with modified Barth's solution (in mM): NaCl 88, KCl 1, NaHCO32.4, MgCb 0.82, CaCl2) 0.77, Tris-Cl 15, adjusted to pH 7.4 with NaOH (Sigma-Aldrich, UK), supplemented with 50 IU/ml penicillin and 50 μg/ml streptomycin (Invitrogen, UK) and 50 μg/ml tetracycline (Sigma-Aldrich, UK) and 1% collagenase (type 1A). […]

SH-SY5Y cells [2] = format: cell-based; conditions: human, 6 h, 250 μM
Experimental: SH-SY5Y cells were utilised between passages 20-24 for all experimental procedures. Cells were cultured in 1:1 Dulbecco's Modified Eagle's Medium (DMEM)/F12 media, containing 17.5 mM glucose and supplemented with 100 ml/L heat-inactivated foetal bovine serum (FBS) and 10 ml/L 200 mM L-glutamine. All cells were maintained in a humidified atmosphere at 37° C. and 5% CO2. Cells were sub-cultured by washing with 10 ml/flask Mg^2+1c a ^2+-free Dulbecco's phosphate-buffered saline (DPBS), lifted with 2 ml 0.25% trypsin-EDTA and suspended in 8 ml culture medium to inactivate the trypsin. The cell suspension was transferred to a falcon tube and centrifuged for 4 minutes at 500×g. The supernatant was removed and cells suspended in a known volume of fresh culture medium. Cells were counted using the Trypan Blue exclusion test for viability. A known volume of the cell suspension was mixed 1:1 with 0.4% Trypan Blue solution and counted with a Bio-Rad TC20™ Automated Cell Counter (Hemel Hempstead, UK). […]
Samples were thawed at room temperature and 100 μl 1M hydrochloric acid was injected through the septum into each vial to release CO2 from the media. […] Samples were then analysed on a GasBench II coupled to a Thermo Delta-XP isotope-ratio mass spectrometer. […]

SH-SY5Y cells [3] = assay: C10 and C8 co-incubation, C10 oxidation in SH-SY5Y cells; format: cell-based; conditions: 250 μM [1-13C]C10 plus 62.5 μM unlabelled C8
Experimental: The effects of co-incubating C10 and C8 on C10 oxidation in SH-SY5Y cells were also explored. Additional stock solutions of 25 mM C8 and 100 mM [1-^13C]C10 were prepared in DMSO, sterile-filtered and stored in aliquots at −20° C. Cells were cultured and incubated for 20 h in 10% FBS-supplemented DMEM media containing 3 mM D-glucose, as previously described. Media was then removed and cells washed. Media was then replaced with 3 ml DMEM containing either 3 mM [U-^13C]glucose and vehicle control DMSO, or 3 mM unlabelled D-glucose. In each D-glucose-supplemented well, cells were treated with either a final concentration of 250 μM [1-^13C] C10, or 250 μM [1-^13C]C10 plus 62.5 μM C8, at a fixed total volume. Wells were then sealed with heavy mineral oil, cells incubated and media sampled as previously outlined.
Samples were thawed at room temperature and 100 μl 1M hydrochloric acid was injected through the septum into each vial to release CO2 from the media. Vials were centrifuged for 30 seconds at 500×g. Samples were then analysed on a GasBench II coupled to a Thermo Delta-XP isotope-ratio mass spectrometer. Ten repeat injections were carried out per sample, with d^13C/^12C ratios measured against Vienna Pee Dee Belemnite (VPDB) using a calibrated CO2 reference gas. ^13CO2/^12CO2 ratios were converted to mole percent excess using absolute molar ratio of ^13C to ^12C (0.0111796) in VPDB. […]

SH-SY5Y cells [4] = assay: CPT1 inhibition assay (etomoxir), oxidation rates in SH-SY5Y cells; format: cell-based; conditions: for Oxidation rate +Etomoxir / Oxidation rate −Etomoxir: 250 μM substrate, mean±SEM; for Oxidation rate +Etomoxir: 50 μM etomoxir; for Oxidation rate −Etomoxir: without etomoxir
Experimental: C16:BSA complex (5:1 molar ratio fatty acid:BSA). […] Both solutions were aliquoted and stored at −20° C. until further use.
A stock solution of 50 mM etomoxir was prepared in sterile cell culture grade water and stored in aliquots at −20° C. On day 5 of culture, growth medium was replaced with 2 ml DMEM formula containing 3 mM D-glucose and 10% FBS. Cells were incubated with or without the presence of 50 μM etomoxir, for 20 h at 37° C. and 5% CO2. […] C8 or [U-^13C] C16:BSA, with 50 μM etomoxir also added to previously exposed cells. Wells were then sealed with heavy mineral oil, with cells incubated and media sampled as previously described.
Samples were thawed at room temperature and 100 μl 1M hydrochloric acid was injected through the septum into each vial to release CO2 from the media. Vials were centrifuged for 30 seconds at 500×g. Samples were then analysed on a GasBench II coupled to a Thermo Delta-XP isotope-ratio mass spectrometer.

GluA2/3 AMPA receptors [5] = biological target: T1, GluA2/3 AMPA receptors; conditions: Chang et al., Brain 2016; cited from earlier work
[6] = cited from earlier work
[7] = animal models; cited from earlier work
[8] = clinically relevant concentrations, in vitro and in vivo; cited from earlier work
SH-SY5Y cells [9] = assay: Cell viability, Trypan Blue exclusion test; format: cell-based; conditions: 50 μM etomoxir, 20 h + 6 h; data not shown
Experimental: Cells were incubated for 20 h at 37° C. and 5% CO2 with 50 μM etomoxir in DMEM media supplemented with 10% FBS, and then a further 6 h at 37° C. with 50 μM etomoxir in DMEM media without FBS. Cells were then lifted from wells with 1 ml 0.25% trypsin-EDTA, suspended in 4 ml culture medium and centrifuged for 4 minutes at 500×g. Supernatant was removed and cells suspended in 1 ml of fresh culture medium. Viability of cells was then tested using the Trypan Blue exclusion test.

## CCCCCCCCCC(=O)O [decanoic acid, Decanoic acid]
GluA2/3 AMPA receptors [1]
  inhibition of AMPA receptor currents by decanoic acid:octanoic acid ratios: no increase in AMPA receptor inhibition
SH-SY5Y cells [2]
  C10 oxidation lower than that of C8 by: approximately 80%
SH-SY5Y cells [3]
  impairment of oxidation rate of C10 by C8 addition: 29%
SH-SY5Y cells [4]; human, 6 h, 250 μM
  reduction of oxidation in the presence of etomoxir: 95%
GluA2/3 AMPA receptors [5]
  effect on AMPA receptors / AMPA receptor currents: inhibits AMPA receptors
[6]
  concentration in peripheral blood (average): 157 µM
  concentration in peripheral blood (range): 87 to 552 µM
[7]
  ratio in blood plasma to brain: around 0.7
[8]
  anti-seizure effects: acute antiseizure effects; also recorded: has anti-seizure effects

## CCCCCCCC(=O)O [octanoic acid, Octanoic acid]
SH-SY5Y cells [4]; human, 6 h, 250 μM
  reduction of oxidation in the presence of etomoxir: 34%
GluA2/3 AMPA receptors [5]
  effect on AMPA receptors / AMPA receptor currents: no effect on AMPA receptor currents
[6]
  concentration in peripheral blood (average): around 306 μM
  concentration in peripheral blood (range): 104 to 859 µM
[8]
  anti-seizure effects: not

## [13CH3][13CH2][13CH2][13CH2][13CH2][13CH2][13CH2][13CH2][13CH2][13CH2][13CH2][13CH2][13CH2][13CH2][13CH2][13C](=O)O [[U-^13C]C16, [U-^13C]palmitic acid, reference compound]
SH-SY5Y cells [4]; 50 μM etomoxir (CPT1 inhibition)
  reduction of oxidation in the presence of etomoxir: 99%
SH-SY5Y cells [4]
  Oxidation rate +Etomoxir: 0.002 ± 0.003 nmol/h
  Oxidation rate −Etomoxir: 0.22 ± 0.05 nmol/h

## CCCCCCC[13C](=O)O [[1-^13C]C8, [1^13C]octanoic acid]
SH-SY5Y cells [4]
  Oxidation rate +Etomoxir: 0.75 ± 0.06 nmol/h
  Oxidation rate −Etomoxir: 1.14 ± 0.11 nmol/h

## CCOC(=O)[C@@]1(CCCCCCOc2ccc(Cl)cc2)CO1 [etomoxir]
SH-SY5Y cells [9]
  effect on viability of SH-SY5Y cells: no effect on viability
